{
  "source": "paper PMC10609081",
  "about": "“In Vivo Trafficking of the Anticancer Drug Tris(8-Quinolinolato) Gallium (III) (KP46) by Gallium-68/67 PET/SPECT Imaging” (Molecules, 2023)",
  "key": {"[1]": {"assay": "PET imaging and ex vivo biodistribution 4 h after oral administration of [68Ga]KP46, tracer (group C) and bulk (group D)", "type": "in vivo, mice", "details": "n = 3", "description": "The tracer-level samples for oral administration were prepared in the same manner but with 20 μL of KP46-free DMSO in place of the KP46 solution in DMSO.\nAll animal experiments were performed in accordance with the Animals (Scientific Procedures) Act, 1986, with protocols approved by the Animal Welfare and Ethical Review Body for King’s College London under project and personal licences approved by the UK Home Office. Tumour xenograft studies were performed on female NSG mice or female athymic nude mice after injecting them subcutaneously in the right shoulder with 2.5 × 10^6 A375 cells in 100 µL of PBS. All in vivo studies were conducted between 14 and 24 days after inoculation, with tumour volumes between 100 mm^3 and 580 mm^3 (see Supplementary Materials, Figure S11).\nOral [^68/67Ga]KP46: The protocol for oral administration experiments reported here was devised on the basis of pilot experiments described in Supplementary Materials (Figure S12). For short-term (up to 4 h) studies with ^68Ga, awake (nonanaesthetised, to avoid suppressive effects of anaesthesia on digestive tract activity) mice that had been fasted for up to 14 h were given [^68Ga]KP46 (5–13 MBq) (group C, “tracer”, n = 3) or [^68Ga]KP46 and KP46 (5–8.5 MBq) (group D, “bulk”, n = 3) by oral gavage. The dose given orally to group D animals, prepared as described above, was 0.4 μmol in 400 μL, molar activity ca. 25 MBq/μmol. The mice were fasted for three hours before being anaesthetised and PET/CT scanned dynamically for one hour (see below for scanning protocol). After scanning, mice in both groups were culled by neck dislocation while still anaesthetised four hours post-oral administration for organ harvesting and gamma counting. Samples of blood, urine and contents of stomach, small intestine and large intestine (the organs/tissue with measurable activity; tumours were not included as they were insufficiently radioactive) from the mice in group C were used for octanol extraction (shake-flask method) to separate water-soluble (released) and lipid-soluble (intact KP46) ^68Ga. Serum samples were prepared by placing blood samples in a serum separator tube (brand VS367954, Fisher Scientific Ltd., Loughborough, UK) and centrifuging at 3000 rpm for 10 min. Serum (200–300 µL) and urine samples (150–180 µL, taken from the excised bladders) were directly added to Eppendorf tubes containing a pre-equilibrated mixture of octanol (500 µL) and water (500 µL). The tubes were vortexed for two minutes on a Multi Vortex Mixer V-32 (Grant Bio). After separation of layers, a sample of 400 µL from each layer was transferred to fresh Eppendorf tubes and analysed with a gamma counter. Stomach content (72–77 mg), small intestine content (35–88 mg), and large intestine content (86–100 mg) samples from each mouse were analysed similarly by adding them directly to Eppendorf tubes containing a pre-equilibrated mixture of octanol (500 µL) and water (500 µL) before vortexing and centrifuging at 10,000 rpm for 10 min at 4 °C. From each layer, 430 µL was transferred to fresh Eppendorf tubes and analysed with a gamma counter; the solid residues were also counted. Tissues from mice in group D were used after radioactive decay for measurements of nonradioactive ^69Ga content.\nPET/CT images were acquired with a nanoScan® PET/CT (Mediso Medical Imaging Systems, Budapest, Hungary) scanner operating in list mode using a 400–600 keV energy window and a coincidence window of 1:3. CT scans were acquired for anatomical reference and attenuation correction (55 keV X-ray, exposure time 1000 ms, and 360 projections and pitch 1). PET projection data were reconstructed using the Tera-tomo® software package provided with the scanner —a Monte Carlo-based fully 3D iterative algorithm with four iterations, six subsets, and 0.4 mm isotropic voxel size; corrections for attenuation, scatter, and dead-time were enabled. […]"}, "[2]": {"test_system": "A375 (human melanoma) cells", "assay": "Cellular uptake of radiogallium in cultured A375 cells", "type": "cell-based", "details": "1 h", "description": "One million A375 (human melanoma) cells were suspended in 0.5 mL of Dulbecco’s Modified Eagle’s Medium (500 mL DMEM, low-glucose medium with 50 mL 10% FBS, 5 mL of L-glutamine, and 5 mL of penicillin and streptomycin) in 1.5 mL Eppendorf tubes. An amount of 10 µL of no-carrier-added [^68Ga]KP46 or [^68Ga]gallium acetate was added to the cell suspensions (giving a ^68Ga concentration of ca. 20 pM) and to similar tubes containing medium but no cells (to check and compensate for adhesion of radioactivity to tubes). Samples were incubated for 60 min at 37 °C under 5% CO2 and then centrifuged (Sci Spin Mini) for three minutes at 1500 RPM. The supernatants were transferred to fresh Eppendorf tubes. The pellets were washed twice with 0.5 mL PBS, following the same centrifugation protocol, and washes were added to the supernatant tubes. Supernatants and cell pellets were measured using a gamma counter to determine the average activity in cell pellets as a % of the total activity for each sample. The intracellular-to-extracellular ^68Ga concentration ratio was also estimated by correcting for the different volume of supernatant and cell pellet using an estimated spherical cell diameter of 17.5 μm, which leads to an estimated volume of the cell pellet (10^6 cells) of 2.8 μL."}, "[3]": {"assay": "Ex vivo biodistribution 2 h after intravenous injection, nu/nu mice bearing A375 xenografts", "type": "in vivo", "details": "i.v., tracer level", "description": "Figure S8. Ex vivo biodistribution of [ Ga]KP46 (tracer level) in nu/nu mice bearing A375 xenografts at two hours post i.v. injection via tail vein. […] Values are […]\nexpressed as mean ± SD (n = 3). (See below for methods)\nMethodology for ex vivo biodistribution 2 h after intravenous injection of [68Ga]KP46 Mice were intravenously injected with tracer level [68Ga]KP46 and culled two hours post injection for organ harvesting and gamma counting. Consistent with the data shown in the main manuscript for 4 […]\n[68Ga]KP46. Activity was also observed in the kidneys (30%ID/g for both kidneys) and urine, indicating excretion through urinary system. Significant activity was also seen in the lungs, heart, and small intestine (14.3 ± 0.6, 12.6 ± 1.7 and 12 ± 2.6 %ID/g, respectively), with minimal activity accumulating in the tumour (3.4 ± 0.4%ID/g) (Figure S8). […]"}},
  "data": [
    {"molecule": "[68Ga+3].[O-]c1cccc2cccnc12.[O-]c1cccc2cccnc12.[O-]c1cccc2cccnc12", "note": "[[^68Ga]KP46]", "values": [
      {"measurement": "68Ga activity delivered to tumour", "setting": "[1]; bulk (group D)", "result": "0.5 ± 0.3", "unit": "%ID/g"},
      {"measurement": "68Ga activity in small intestine", "setting": "[1]; bulk (group D)", "result": "18.4 ± 5", "unit": "%ID/g"},
      {"measurement": "68Ga activity in stomach", "setting": "[1]; bulk (group D)", "result": "11.9 ± 8.1", "unit": "%ID/g"},
      {"measurement": "68Ga activity in large intestine", "setting": "[1]; bulk (group D, combined with KP46 0.4 μmol)", "result": "56.5 ± 21.4", "unit": "%ID/g"},
      {"measurement": "uptake in large intestine, ex vivo", "setting": "[1]; tracer level (group C)", "result": "61.7 ± 21.5", "unit": "%ID/g"},
      {"measurement": "uptake in small intestine, ex vivo", "setting": "[1]; tracer level (group C)", "result": "12.8 ± 4.1", "unit": "%ID/g"},
      {"measurement": "cellular uptake (% radioactivity added, corrected for nonspecific binding to vessel)", "setting": "[2]; DMEM containing FBS, n = 3", "result": "2.55% ± 1%"},
      {"measurement": "intracellular-to-extracellular concentration ratio", "setting": "[2]; corrected data, estimated cell pellet volume 2.8 μL", "result": "14 ± 6"},
      {"measurement": "activity in kidneys, ex vivo", "setting": "[3]; both kidneys", "result": 30, "unit": "%ID/g"},
      {"measurement": "activity in heart, ex vivo", "setting": "[3]; n = 3", "result": "12.6 ± 1.7", "unit": "%ID/g"},
      {"measurement": "activity in liver, ex vivo", "setting": "[3]; n = 3", "result": "31.4 ± 3.8", "unit": "%ID/g"},
      {"measurement": "activity in lungs, ex vivo", "setting": "[3]; n = 3", "result": "14.3 ± 0.6", "unit": "%ID/g"},
      {"measurement": "activity in small intestine, ex vivo", "setting": "[3]; n = 3", "result": "12 ± 2.6", "unit": "%ID/g"},
      {"measurement": "activity in tumour, ex vivo", "setting": "[3]; n = 3", "result": "3.4 ± 0.4", "unit": "%ID/g"}
    ]}
  ]
}
